How the values were obtained:
Experiment in all cases: relative viability (nuclei count vs DMSO), 5 days (fraction); higher = more cells survive
NCI-H838 = system: NCI-H838
Summary of the method: (§1)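 Nuclei were stained with Hoechst during a one-step fixation (final 0.05% Triton X-100, 1% formaldehyde, 1 ug/ml Hoechst) carried out 5 days after dosing, then counted on 4× images. The cells, lung cancer lines in 1536-well plates, had been dosed by pin tool the day after seeding with one drug alone or a fixed anchor-drug dose plus five library-drug doses (not always all listed) in √10 steps. Relative viability is the nuclei count in treated wells divided by that in vehicle wells, and each value is the median of duplicate plates.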

201T = system: 201T
Summary of the method: as §1

NCI-H2009 = system: NCI-H2009
Summary of the method: as §1

NCI-H23 = system: NCI-H23
Summary of the method: as §1

NCI-H2126 = system: NCI-H2126
Summary of the method: as §1

NCI-H2405 = system: NCI-H2405
Summary of the method: as §1

NCI-H661 = system: NCI-H661
Summary of the method: as §1

NCI-H1355 = system: NCI-H1355
Summary of the method: as §1

HCC-78 = system: HCC-78
Summary of the method: as §1

NCI-H322M = system: NCI-H322M
Summary of the method: as §1

EPLC-272H = system: EPLC-272H
Summary of the method: as §1

NCI-H1395 = system: NCI-H1395
Summary of the method: as §1

NCI-H647 = system: NCI-H647
Summary of the method: as §1

LCLC-97TM1 = system: LCLC-97TM1
Summary of the method: as §1

PC-14 = system: PC-14
Summary of the method: as §1

NCI-H2085 = system: NCI-H2085
Summary of the method: as §1

HCC-15 = system: HCC-15
Summary of the method: as §1

NCI-H2228 = system: NCI-H2228
Summary of the method: as §1

BEN = system: BEN
Summary of the method: as §1

LU99A = system: LU99A
Summary of the method: as §1

NCI-H650 = system: NCI-H650
Summary of the method: as §1

NCI-H460 = system: NCI-H460
Summary of the method: as §1

Nc1cccc2c1CN(C1CCC(=O)NC1=O)C2=O (stereo not drawn) [Lenalidomide] + CS(=O)(=O)CCNCc1ccc(-c2ccc3ncnc(Nc4ccc(OCc5cccc(F)c5)c(Cl)c4)c3c2)o1 [Lapatinib] (partner 2 µM)
relative viability (NCI-H838; first compound 0.253 µM): 0.807 | relative viability (NCI-H838; first compound 0.8 µM): 0.956 | relative viability (NCI-H838; first compound 2.53 µM): 1.34 | relative viability (NCI-H838; first compound 8 µM): 0.816 | relative viability (201T; first compound 0.253 µM): 1.07 | relative viability (201T; first compound 0.8 µM): 0.815 | relative viability (201T; first compound 2.53 µM): 1.02 | relative viability (201T; first compound 8 µM): 0.954 | relative viability (NCI-H2009; first compound 0.253 µM): 0.919 | relative viability (NCI-H2009; first compound 0.8 µM): 0.947 | relative viability (NCI-H2009; first compound 2.53 µM): 1.25 | relative viability (NCI-H2009; first compound 8 µM): 1.25 | relative viability (NCI-H23; first compound 0.253 µM): 1.05 | relative viability (NCI-H23; first compound 0.8 µM): 1 | relative viability (NCI-H23; first compound 2.53 µM): 1.16 | relative viability (NCI-H23; first compound 8 µM): 0.781 | relative viability (NCI-H2126; first compound 0.253 µM): 0.743 | relative viability (NCI-H2126; first compound 0.8 µM): 0.537 | relative viability (NCI-H2126; first compound 2.53 µM): 0.733 | relative viability (NCI-H2126; first compound 8 µM): 0.584 | relative viability (NCI-H2405; first compound 0.253 µM): 1 | relative viability (NCI-H2405; first compound 0.8 µM): 0.949 | relative viability (NCI-H2405; first compound 2.53 µM): 1.03 | relative viability (NCI-H2405; first compound 8 µM): 0.884 | relative viability (NCI-H661; first compound 0.253 µM): 0.428 | relative viability (NCI-H661; first compound 0.8 µM): 0.501 | relative viability (NCI-H661; first compound 2.53 µM): 0.479 | relative viability (NCI-H661; first compound 8 µM): 0.495 | relative viability (NCI-H1355; first compound 0.253 µM): 1 | relative viability (NCI-H1355; first compound 0.8 µM): 0.623 | relative viability (NCI-H1355; first compound 2.53 µM): 0.963 | relative viability (NCI-H1355; first compound 8 µM): 0.606 | relative viability (HCC-78; first compound 0.253 µM): 0.811 | relative viability (HCC-78; first compound 0.8 µM): 0.367 | relative viability (HCC-78; first compound 2.53 µM): 0.245 | relative viability (HCC-78; first compound 8 µM): 0.271 | relative viability (NCI-H322M; first compound 0.253 µM): 0.648 | relative viability (NCI-H322M; first compound 0.8 µM): 0.629 | relative viability (NCI-H322M; first compound 2.53 µM): 0.592 | relative viability (NCI-H322M; first compound 8 µM): 0.635 | relative viability (EPLC-272H; first compound 0.253 µM): 0.97 | relative viability (EPLC-272H; first compound 2.53 µM): 0.976 | relative viability (EPLC-272H; first compound 8 µM): 0.648 | relative viability (NCI-H1395; first compound 0.253 µM): 1.1 | relative viability (NCI-H1395; first compound 2.53 µM): 0.948 | relative viability (NCI-H1395; first compound 8 µM): 0.845 | relative viability (NCI-H647; first compound 0.253 µM): 0.995 | relative viability (NCI-H647; first compound 0.8 µM): 0.981 | relative viability (NCI-H647; first compound 2.53 µM): 1.46 | relative viability (NCI-H647; first compound 8 µM): 0.88 | relative viability (LCLC-97TM1; first compound 0.8 µM): 0.602 | relative viability (LCLC-97TM1; first compound 2.53 µM): 1.09 | relative viability (LCLC-97TM1; first compound 8 µM): 0.623 | relative viability (PC-14; first compound 0.253 µM): 0.294 | relative viability (PC-14; first compound 0.8 µM): 0.32 | relative viability (PC-14; first compound 2.53 µM): 0.4 | relative viability (PC-14; first compound 8 µM): 0.302 | relative viability (NCI-H2085; first compound 0.253 µM): 0.731 | relative viability (NCI-H2085; first compound 0.8 µM): 0.538 | relative viability (NCI-H2085; first compound 2.53 µM): 0.912 | relative viability (NCI-H2085; first compound 8 µM): 0.477 | relative viability (HCC-15; first compound 0.253 µM): 0.902 | relative viability (HCC-15; first compound 2.53 µM): 1.07 | relative viability (HCC-15; first compound 8 µM): 0.841 | relative viability (NCI-H2228; first compound 0.253 µM): 0.997 | relative viability (NCI-H2228; first compound 0.8 µM): 0.864 | relative viability (NCI-H2228; first compound 2.53 µM): 1.59 | relative viability (NCI-H2228; first compound 8 µM): 0.958 | relative viability (BEN; first compound 0.253 µM): 0.898 | relative viability (BEN; first compound 0.8 µM): 0.587 | relative viability (BEN; first compound 2.53 µM): 0.918 | relative viability (BEN; first compound 8 µM): 0.489 | relative viability (LU99A; first compound 0.253 µM): 0.922 | relative viability (LU99A; first compound 0.8 µM): 0.919 | relative viability (LU99A; first compound 2.53 µM): 0.894 | relative viability (LU99A; first compound 8 µM): 0.56 | relative viability (NCI-H650; first compound 0.253 µM): 1.04 | relative viability (NCI-H650; first compound 2.53 µM): 1.01 | relative viability (NCI-H650; first compound 8 µM): 0.804 | relative viability (NCI-H460; first compound 0.253 µM): 0.981 | relative viability (NCI-H460; first compound 0.8 µM): 1.14 | relative viability (NCI-H460; first compound 2.53 µM): 1.66 | relative viability (NCI-H460; first compound 8 µM): 1.01
